From patent US7932262B2 (Novartis AG, priority 2006, dated 2011) come the findings set out here.

Assay [1] addresses T1, PDK1 kinase (Homo sapiens, UniProt O15530).
T1 sequence (O15530 1-556): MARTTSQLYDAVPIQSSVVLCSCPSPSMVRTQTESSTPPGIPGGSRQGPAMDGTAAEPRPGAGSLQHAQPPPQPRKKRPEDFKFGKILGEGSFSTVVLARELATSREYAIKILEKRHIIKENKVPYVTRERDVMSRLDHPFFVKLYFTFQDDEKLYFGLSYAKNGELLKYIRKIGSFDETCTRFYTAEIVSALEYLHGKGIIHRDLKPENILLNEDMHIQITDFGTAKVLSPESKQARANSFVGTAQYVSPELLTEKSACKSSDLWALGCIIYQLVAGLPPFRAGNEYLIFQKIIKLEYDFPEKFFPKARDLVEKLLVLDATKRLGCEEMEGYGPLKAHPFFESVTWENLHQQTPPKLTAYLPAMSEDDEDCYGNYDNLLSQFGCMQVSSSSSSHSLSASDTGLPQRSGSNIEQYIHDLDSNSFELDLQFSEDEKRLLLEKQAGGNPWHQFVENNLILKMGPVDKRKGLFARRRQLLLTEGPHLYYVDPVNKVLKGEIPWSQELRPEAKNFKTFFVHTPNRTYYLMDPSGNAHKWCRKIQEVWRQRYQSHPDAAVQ
Nature of the assay: PDK1 Kinase Alpha Screen Assay. Type of assay: biochemical. The settings on record: read-out: PDK1 IC50. The gist of the method: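 Detection used AlphaScreen: streptavidin donor and protein A acceptor beads (25 μg/ml each) bridged by a phospho-(Ser/Thr) PKA substrate antibody binding phosphorylated peptide. Reaction: biotin-PDK1-4 peptide (50 nM), ATP (10 uM), PDK1 in pH 7.5 Tris/MgCl2/DTT buffer, 3-18 hours, EDTA-stopped.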

In assay [2] the test system is A2780 cells. The experiment in a line: Cell Proliferation Assay (Cell Titer Glo), A2780. The note with it: Homo sapiens, A2780 cells, read-out: CPEC50 A2780. Type of assay: cell-based. Here is the method:
IV. Cell Proliferation Assay Protocol:
A2780, PC-3, or PC3MM cells were seeded at 1000 cells/well in 100 μL/well (10.000 cells/mL) growth media in 96-well plates. Cells were allowed to adhere to the bottom of plates for 3-5 hours in a 37° C. 5% CO2 incubator. Compounds were dissolved in DMSO and then transferred to the cell plates. The cells were incubated with the compounds for 3 days in a 37° C. 5% CO2 incubator. The growth medium containing the compounds was then removed from the cells and fresh medium was added, followed by 100 μL of Cell Titer Glo assay reagent (Promega). This mixture was shaken for 1 minute and then incubated without shaking for 10 minutes. Activity determinations for the compounds were made by detection on a Trilux Instrument.

Read-outs that look alike come from different tables or passages of the source.

Regarding `CC(C)N1CCC(Oc2cccc3cnc(Nc4cccc(S(=O)(=O)N5CCOCC5)c4)nc23)CC1` [Compound 6, [8-(1-Isopropyl-piper-idin-4-yloxy)-quina-zolin-2-yl]-[3-(morpholine-4-sul-fonyl)-phenyl]-amine], in assay [1], the IC50 was less than 5 µM. Besides, in assay [2] (72 h, 3 days incubation), the EC50 is less than 5 µM.
`CN1CCN(S(=O)(=O)c2cccc(Nc3ncc4cccc(OC5CCNCC5)c4n3)c2)CC1` [Compound 7, [3-(4-Methyl-piper-azine-1-sulfonyl)-phenyl]-[8-(piperidin-4-yloxy)-quinazolin-2-yl]-amine]: in assay [1], the IC50 was less than 5 µM. The EC50 in assay [2] (72 h, 3 days incubation) was less than 5 µM.
With `CC(C)NS(=O)(=O)c1cccc(Nc2ncc3cccc(OC4CCNCC4)c3n2)c1` [Compound 8, N-Isopropyl-3-[8-(piperidin-4-yloxy)-quinazolin-2-yl-amino]-benzenesulfonamide], in assay [1], the IC50 is less than 5 µM. In addition, in assay [2] (72 h, 3 days incubation), the EC50 was less than 5 µM.
Take `COCCNS(=O)(=O)c1cccc(Nc2ncc3cccc(OC4CCNCC4)c3n2)c1` [Compound 9, N-(2-Methoxy-ethyl)-3-[8-(piperidin-4-yloxy)-quinazolin-2-ylamino]-benzenesulfonamide]: the IC50 in assay [1] is less than 5 µM. For the same molecule, in assay [2] (72 h, 3 days incubation), the EC50 was less than 5 µM.
In the case of `CN1CCN(S(=O)(=O)c2ccc(Nc3ncc4cccc(OC5CCNCC5)c4n3)cc2)CC1` [Compound 10, [4-(4-Methyl-piper-azine-1-sulfonyl)-phenyl]-[8-(piper-idin-4-yloxy)-quinazolin-2-yl]-amine], the IC50 in assay [1] is less than 5 µM. Further, in assay [2] (72 h, 3 days incubation), the EC50 was less than 5 µM.
As for `O=S(=O)(NCCN1CCCC1)c1cccc(Nc2ncc3cccc(OC4CCNCC4)c3n2)c1` [Compound 15, 3-[8-(Piperidin-4-yl-oxy)-quinazolin-2-ylamino]-N-(2-pyrrolidin-1-yl-ethyl)-benzenesulfonamide], the IC50 in assay [1] is less than 5 µM. In assay [2] (72 h, 3 days incubation), the EC50 lay within 5 to 10 µM.
Consider `O=S(=O)(NC1CC1)c1cccc(Nc2ncc3cccc(OC4CCNCC4)c3n2)c1` [Compound 16, N-Cyclopropyl-3-[8-(piperidin-4-yloxy)-quinazolin-2-ylamino]-benzenesulfonamide], for which the IC50 in assay [1] was less than 5 µM. In addition, the EC50 in assay [2] (72 h, 3 days incubation) is less than 5 µM.
For `NS(=O)(=O)c1ccc(Nc2ncc3ccc(Br)c(OC4CCNCC4)c3n2)cc1` [Compound 17, 4-[7-Bromo-8-(piper-idin-4-yloxy)-quin-azolin-2-ylamino]-benzenesulfonamide], the IC50 in assay [1] was less than 5 µM. Further, in assay [2] (72 h, 3 days incubation), the EC50 is less than 5 µM.
As to `NC(=O)c1ccc(-c2ccc3cnc(Nc4ccc(S(N)(=O)=O)cc4)nc3c2OC2CCNCC2)cc1` [Compound 19, 4-[8-(Piperidin-4-yl-oxy)-2-(4-sulfamoyl-phenylamino)-quinazolin-7-yl]-benzamide], the IC50 in assay [1] was less than 5 µM. Also, the EC50 in assay [2] (72 h, 3 days incubation) lay in the range of 5 to 10 µM.
Taken in the same sequence, the figures for `NS(=O)(=O)c1ccc(Nc2ncc3ccc(-c4ccncc4)c(OC4CCNCC4)c3n2)cc1` [Compound 20, 4-[8-(Piperidin-4-yl-oxy)-7-pyridin-4-yl-quinazolin-2-ylamino]-benzenesulfonamide] were less than 5 µM and less than 5 µM.
For the molecule `Nc1ncc(-c2ccc3cnc(Nc4ccc(S(N)(=O)=O)cc4)nc3c2OC2CCNCC2)cn1` [Compound 22, 4-[7-(2-Amino-pyrimidin-5-yl)-8-(piperidin-4-yloxy)-quinazolin-2-ylamino]-benzenesulfonamide], in assay [1], the IC50 was less than 5 µM. In addition, in assay [2] (72 h, 3 days incubation), the EC50 is 5 to 10 µM.
On to `N#Cc1ccc2cnc(Nc3ccc(S(N)(=O)=O)cc3)nc2c1OC1CCNCC1` [Compound 29, 4-[7-Cyano-8-(piperidin-4-yloxy)-quinazolin-2-ylamino]-benzenesulfonamide], for which, in assay [1], the IC50 is less than 5 µM. The EC50 in assay [2] (72 h, 3 days incubation) is less than 5 µM.
For the molecule `NC(=O)c1ccc(Nc2ncc3cccc(OC4CCNCC4)c3n2)cc1` [Compound 30, 4-[8-(Piperidin-4-yloxy)-quinazolin-2-ylamino]-benzamide], the IC50 in assay [1] was less than 5 µM. The EC50 in assay [2] (72 h, 3 days incubation) was less than 5 µM.
`NS(=O)(=O)c1ccc(Nc2ncc3cccc(O[C@H]4CCNC4)c3n2)cc1` [Compound 32, 4-[8-((S)-Pyrrolidin-3-yloxy)-quinazolin-2-ylamino]-benzenesulfonamide]: the IC50 in assay [1] is less than 5 µM. In addition, in assay [2] (72 h, 3 days incubation), the EC50 was less than 5 µM.
For the molecule `NS(=O)(=O)c1ccc(Nc2ncc3cccc(OC4CN5CCC4CC5)c3n2)cc1` (centres unmarked) [Compound 33, 4-[8-(1-Aza-bicyclo[2.2.2]oct-3-yloxy)-quinazolin-2-ylamino]-benzenesulfonamide], the IC50 in assay [1] is less than 5 µM. Moreover, the EC50 in assay [2] (72 h, 3 days incubation) was less than 5 µM.
On to `CN1CC[C@H](Oc2cccc3cnc(Nc4ccc(S(N)(=O)=O)cc4)nc23)C1` [Compound 34, 4-[8-((S)-1-Methyl-pyrrolidin-3-yloxy)-quinazolin-2-ylamino]-benzenesulfonamide], for which the IC50 in assay [1] is less than 5 µM. In assay [2] (72 h, 3 days incubation), the EC50 is less than 5 µM.
On to `CN1CC[C@@H](Oc2cccc3cnc(Nc4ccc(S(N)(=O)=O)cc4)nc23)C1` [Compound 38, 4-[8-((R)-1-Methyl-pyrrolidin-3-yloxy)-quinazolin-2-ylamino]-benzenesulfonamide], for which the IC50 in assay [1] is less than 5 µM. The EC50 in assay [2] (72 h, 3 days incubation) was less than 5 µM.
`CN1CCCC(Oc2cccc3cnc(Nc4ccc(S(N)(=O)=O)cc4)nc23)C1` (centres unmarked) [Compound 39, 4-[8-(1-Methyl-piperidin-3-yloxy)-quinazolin-2-ylamino]-benzenesulfonamide]: the IC50 in assay [1] is less than 5 µM. Also, in assay [2] (72 h, 3 days incubation), the EC50 was less than 5 µM.
For `CC(C)N1CC(Oc2cccc3cnc(Nc4ccc(S(N)(=O)=O)cc4)nc23)C1` [Compound 47, 4-[8-(1-Isopropyl-azetidin-3-yloxy)-quinazolin-2-ylamino]-benzenesulfonamide], the IC50 in assay [1] is less than 5 µM. Besides, the EC50 in assay [2] (72 h, 3 days incubation) was less than 5 µM.
For the molecule `NS(=O)(=O)c1ccc(Nc2ncc3cccc(OC4CNC4)c3n2)cc1` [Compound 48, 4-[8-(Azetidin-3-yloxy)-quinazolin-2-ylamino]-benzenesulfonamide], the IC50 in assay [1] is less than 5 µM. Besides, in assay [2] (72 h, 3 days incubation), the EC50 was 5 to 10 µM.
Turning to `CC(C)CN1CC(Oc2cccc3cnc(Nc4ccc(S(N)(=O)=O)cc4)nc23)C1` [Compound 49, 4-[8-(1-Isobutyl-azetidin-3-yloxy)-quinazolin-2-ylamino]-benzenesulfonamide], in assay [1], the IC50 was less than 5 µM. Further, in assay [2] (72 h, 3 days incubation), the EC50 is less than 5 µM.
As for `NS(=O)(=O)c1ccc(Nc2ncc3cccc(OCc4ccc5nonc5c4)c3n2)cc1` [Compound 720, 4-(8-(benzo[c][1,2,5]oxadiazol-5-ylmethoxy)quinazolin-2-ylamino)benzenesulfonamide], the EC50 in assay [2] (cell proliferation) was 5 to 10 µM.
For the molecule `c1cc(OC2CCCC2)c2nc(NC3CC3)ncc2c1` [Compound 728, 8-(cyclopentyloxy)-N-cyclopropylquinazolin-2-amine], in assay [2] (cell proliferation), the EC50 lay within 5 to 10 µM.
As to `Fc1ccc(F)c(CNc2ncc3cccc(OC4CCCC4)c3n2)c1` [Compound 729, 8-(cyclopentyloxy)-N-(2,5-difluorobenzyl)quinazolin-2-amine], the EC50 in assay [2] (cell proliferation) is 5 to 10 µM.
On to `Oc1cccc2cnc(NCc3cc(F)ccc3F)nc12` [Compound 730, 2-(2,5-difluorobenzylamino)quinazolin-8-ol], for which the EC50 in assay [2] (cell proliferation) is less than 5 µM.
Consider `NS(=O)(=O)c1ccc(Nc2ncc3ccc(-c4ccc5c(c4)OCO5)cc3n2)cc1` [Compound 791, 4-(7-(benzo[d][1,3]dioxol-5-yl)quinazolin-2-ylamino)benzenesulfonamide], for which the EC50 in assay [2] (cell proliferation) lay in the range of 5 to 10 µM.
